# In patent publication US6482799B1, “Self-preserving multipurpose ophthalmic solutions incorporating a polypeptide antimicrobial” (The Regents of the University of California, priority 1999, dated 2002):
# Test system: Staphylococcus aureus (ATCC 6538)
# Experiment: Short-term (14 day) stability in commercial plastic container (RENU) by S. aureus bioassay
# Type: cell-based
# Details: for stability of antimicrobial activity: room temperature, plastic container
# Description: The objective of this study was to determine if there is significant and rapid binding of L-IND to a typical plastic bottle such as the type to be used to store, ship and use the lens-care solution. The 2-week study reported here was a range-finding task to determine if there was substantial binding and incompatibility, and its results helped plan a more extensive stability study over a period of 8 months.
# The two commercial containers were used that previously contained the commercial product RENU®, a multi-purpose solution for all soft contact lenses not requiring enzymatic cleaning, and manufactured by Bausch & Lomb. These containers hold a volume of 89 ml and came with a dispenser that precludes the removal of the cap, which aids in keeping the solution sterile. The lot number of the RENU® lens-care solutions used was GE7089, having an expiration date of May 1999.
# The containers were prepared for the L-IND stability study by discarding the RENU® lens care solution, and by rinsing, 3 times with either sterile 10 mM sodium phosphate buffer (SP), pH 7.4 or 10 mM SP supplemented with 0.85 % (w/v) sodium chloride (SP+NaCl).
# The test article, L-IND peptide solution, was prepared fresh from dry L-IND powder (Lot #036752). Two solutions were prepared for evaluation, to a final concentration of 50 μg/ml in 50 ml of 10 mM SP and 10 mM SP+NaCl. For this purpose a stock solution was prepared by weighing out 5 mg of L-IND and dissolving it in 10 ml of 0.01% acetic acid in a pyrogen free sterile Teflon container. A 10-fold dilution of this stock was then made by transferring 5 ml of the stock solution to each of the containers to which was then added 45 ml of either 10 mM SP or 10 mM SP+NaCl. After mixing by slowly shaking, the solutions were maintained at room temperature for the duration of the study.
# It should be noted that the 5 ml of the L-IND stock solution was added to the empty containers. This was followed by addition of 45 ml of the respective buffer systems. The addition of peptide concentrate to the empty containers would enhance binding of the peptide to the plastic. Had excessive binding resulted, a less stringent procedure of adding the peptide concentrate to bottles prefilled with buffer would have been adopted in subsequent experiments.
# The stability of L-IND in each container was determined at times 0 h, 24 h, 48 h, 72 h, 7 d, 10 d and 14 d. At each sampling point, the contents of each of the two containers was shaken gently 3 times in a back and forth rocking motion. Three aliquots of about 1.5 ml of the solutions containing L-IND were removed. One aliquot was used immediately for determining the stability of L-IND by exposure to Staphylococcus aureus (see below). The other aliquots were stored in the freezer (−20° C.). One of these aliquots was kept until the end of the monitoring period, which was 14 days. At that time all the frozen samples were thawed and tested for stability of L-IND by bioassay.
# Staphylococcus aureus (ATCC 6538) obtained directly from the American Type Culture Collection was the test organism. The bacterium was grown overnight at 37° C. in 5 ml of Mueller-Hinton (MH) broth on a shaking platform (180 rpm). The overnight culture was washed 2 times in sterile saline by centrifugation at 7,000 RPM. One half of the cells were then resuspended in 2.5 ml of sterile 10 mM SP, while the other half was resuspended in 2.5 ml of 10 mM SP+NaCl. Each washed culture was then diluted to give an estimated 10^7 colony-forming-units (CFU) per […].
# S. aureus was exposed at room temperature to each of the samples, removed at the different time points, for 0, 15 and 60 minutes, and for 4 hours. For this purpose 0.25 ml of each L-IND solution was dispensed into wells of a 96-well polypropylene titer plate. A volume of 20 μl of the 10× washed bacterial suspension was then added to each well. The estimated cell density thus obtained per well was about 10^6 CFU/ml. […]
compound,measurement,setting,value
"CC[C@H](C)[C@H](N)C(=O)N[C@@H](CC(C)C)C(=O)N1CCC[C@H]1C(=O)N[C@@H](Cc1c[nH]c2ccccc12)C(=O)N[C@@H](CCCCN)C(=O)N[C@@H](Cc1c[nH]c2ccccc12)C(=O)N1CCC[C@H]1C(=O)N[C@@H](Cc1c[nH]c2ccccc12)C(=O)N[C@@H](Cc1c[nH]c2ccccc12)C(=O)N1CCC[C@H]1C(=O)N[C@@H](Cc1c[nH]c2ccccc12)C(=O)N[C@@H](CCCNC(=N)N)C(=O)N[C@@H](CCCNC(=N)N)C(N)=O [L-indolicidin, H2N-ILPWKWPWWPWRR-CONH2]",stability of antimicrobial activity,"50 μg/ml in 10 mM SP+NaCl (0.85%), 14 days",stable
same,stability of antimicrobial activity,"50 μg/ml in 10 mM SP, 14 days",stable
same,adsorption to the plastic container,"50 μg/ml, 14 days",no obvious or dramatic adsorption
same,log kill,"50 μg/ml, frozen samples, 10 mM SP+NaCl, 4 hours exposure",about 1.5 log
same,log kill,"50 μg/ml, frozen, 10 mM SP, 60 minute exposure",6 log
same,log kill,"50 μg/ml, unfrozen, 10 mM SP+NaCl (0.85%), 4 hours exposure",~1 log
same,log kill,"50 μg/ml, unfrozen, 10 mM SP, 4 hours exposure",4 log
